Data: ChEMBL document CHEMBL5532698, “2,3-Dihydroquinazolin-4(1H)-ones and quinazolin-4(3H)-ones as broad-spectrum cytotoxic agents and their impact on tubulin polymerisation” (RSC Med Chem, 2024)
Activity calls are given as the source filed them. No cut-off for these calls is given here.

Tests used:
[1] = system: MCF7; assay: Antiproliferative activity against human MCF7 cells assessed as cell growth inhibition incubated for 72 hrs by MTT assay; format: functional
[2] = system: MIA PaCa-2; assay: Antiproliferative activity against human MIA PaCa-2 cells assessed as cell growth inhibition incubated for 72 hrs by MTT assay; format: functional
[3] = system: BE(2)-C; assay: Antiproliferative activity against human BE2C cells assessed as cell growth inhibition incubated for 72 hrs by MTT assay; format: functional
[4] = system: MCF7; assay: Antiproliferative activity against human MCF7 cells assessed as cell growth inhibition at 25 uM incubated for 72 hrs by MTT assay relative to control; format: functional
[5] = system: HT-29; assay: Antiproliferative activity against human HT-29 cells assessed as cell growth inhibition at 25 uM incubated for 72 hrs by MTT assay relative to control; format: functional
[6] = system: A-431; assay: Antiproliferative activity against human A-431 cells assessed as cell growth inhibition at 25 uM incubated for 72 hrs by MTT assay relative to control; format: functional
[7] = system: HT-29; assay: Antiproliferative activity against human HT-29 cells assessed as cell growth inhibition incubated for 72 hrs by MTT assay; format: functional
[8] = system: NCI-H460; assay: Antiproliferative activity against human NCI-H460 cells assessed as cell growth inhibition at 25 uM incubated for 72 hrs by MTT assay relative to control; format: functional
[9] = system: U-87 MG; assay: Antiproliferative activity against human U87 cells assessed as cell growth inhibition at 25 uM incubated for 72 hrs by MTT assay relative to control; format: functional, U-87MG ATCC
[10] = system: BE(2)-C; assay: Antiproliferative activity against human BE2C cells assessed as cell growth inhibition at 25 uM incubated for 72 hrs by MTT assay relative to control; format: functional
[11] = system: MIA PaCa-2; assay: Antiproliferative activity against human MIA PaCa-2 cells assessed as cell growth inhibition at 25 uM incubated for 72 hrs by MTT assay relative to control; format: functional
[12] = system: A2780; assay: Antiproliferative activity against human A2780 cells assessed as cell growth inhibition at 25 uM incubated for 72 hrs by MTT assay relative to control; format: functional
[13] = Cytotoxicity against human MCF-10A cells assessed as cell growth inhibition incubated for 72 hrs by MTT assay; format: toxicity, cell-based
[14] = Antiproliferative activity against human SJG2 cells assessed as cell growth inhibition at 25 uM incubated for 72 hrs by MTT assay relative to control; format: functional; details: SJ-G2
[15] = system: NCI-H460; assay: Antiproliferative activity against human NCI-H460 cells assessed as cell growth inhibition incubated for 72 hrs by MTT assay; format: functional
[16] = system: U-87 MG; assay: Antiproliferative activity against human U87 cells assessed as cell growth inhibition incubated for 72 hrs by MTT assay; format: functional, U-87MG ATCC
[17] = system: DU-145; assay: Antiproliferative activity against human DU-145 cells assessed as cell growth inhibition at 25 uM incubated for 72 hrs by MTT assay relative to control; format: functional
[18] = system: DU-145; assay: Antiproliferative activity against human DU-145 cells assessed as cell growth inhibition incubated for 72 hrs by MTT assay; format: functional
[19] = system: A-431; assay: Antiproliferative activity against human A-431 cells assessed as cell growth inhibition incubated for 72 hrs by MTT assay; format: functional
[20] = Antiproliferative activity against human SJG2 cells assessed as cell growth inhibition incubated for 72 hrs by MTT assay; format: functional; details: SJ-G2
[21] = Cytotoxicity against human MCF-10A cells assessed as cell growth inhibition at 25 uM incubated for 72 hrs by MTT assay relative to control; format: toxicity, cell-based
[22] = system: A2780; assay: Antiproliferative activity against human A2780 cells assessed as cell growth inhibition incubated for 72 hrs by MTT assay; format: functional
[23] = target: Tubulin (Homo sapiens) (UniProt P68371+Q9H4B7+P0DPH7+P68366+Q13509+Q71U36+P04350+Q3ZCM7+P07437+P68363+Q9BQE3+Q6PEY2+Q13885+Q9BVA1+Q9BUF5); assay: Induction of tubulin (unknown origin) polymerization assessed as microtubule formation by measuring increase in fluorescence at 10 uM by fluorometric analysis; format: protein-complex assay; details: filed as activator

Compound	GI50 [1] [µM]	GI50 [2] [µM]	GI50 [7] [µM]	GI50 [15] [µM]	GI50 [16] [µM]	GI50 [18] [µM]	GI50 [19] [µM]	GI50 [3] [µM]	inhibition at 25 µM [4] [%]	inhibition at 25 µM [5] [%]	inhibition at 25 µM [6] [%]	inhibition at 25 µM [8] [%]	inhibition at 25 µM [9] [%]	inhibition at 25 µM [10] [%]	inhibition at 25 µM [11] [%]	inhibition at 25 µM [12] [%]	GI50 at 72 h [13] [µM]	inhibition at 25 µM [14] [%]	inhibition at 25 µM [17] [%]	GI50 [20] [µM]	further results
O=C1NC(c2ccc(O)cc2)Nc2ccccc21 (stereo not given)	12	8.8	3.7	10	16	10	3.2	4.1	55	> 100	108	88	72	100	84	95	9.9	> 100	90	8.9	inhibition at 72 h, 25 µM [21]: 91%; GI50 [22]: 3.2 µM
O=C1NC(c2ccc3ccccc3c2)Nc2ccccc21 (stereo not given)	2.8	2.8	2.7	2.9	5	4.2	3	2.9	135	> 100	> 100	100	94	98	> 100	> 100	3.5	> 100	> 100	2.8	inhibition at 72 h, 25 µM [21]: 99%; GI50 [22]: 2.9 µM
CC(=O)O[C@H]1C(=O)[C@@]2(C)[C@H]([C@H](OC(=O)c3ccccc3)[C@]3(O)C[C@H](OC(=O)[C@H](O)[C@@H](NC(=O)c4ccccc4)c4ccccc4)C(C)=C1C3(C)C)[C@]1(OC(C)=O)CO[C@@H]1C[C@@H]2O																					Activity [23]: Active
O=C1NC(C2CC=CCC2)Nc2ccccc21 (stereo not given)	15	12	5.4	11	17	19	3.8	5.7	72	> 100	> 100	91	67	97	82	99	11	87	67	17	inhibition at 72 h, 25 µM [21]: 89%; GI50 [22]: 3.9 µM
O=C1NC(c2ccccc2Br)Nc2ccccc21 (stereo not given)	3.7	4.2	2.4	3.6	10	4.3	2.3	2.5	82	> 100	> 100	95	80	> 100	89	96	4.3	> 100	100	3	inhibition at 72 h, 25 µM [21]: 94%; GI50 [22]: 2.5 µM
O=C1NC(/C(Br)=C/c2ccccc2)Nc2ccccc21 (stereo not given)	8.5	12	2.6	4.7	5.7	3.1	8.2	10	> 100	> 100	> 100	97	95	87	81	94	2.9	> 100	> 100	12	inhibition at 72 h, 25 µM [21]: 99%; GI50 [22]: 5 µM

Further molecules by falling GI50 [1], results first:

GI50 [1] [µM]	GI50 [2] [µM]	GI50 [7] [µM]	GI50 [15] [µM]	GI50 [16] [µM]	GI50 [18] [µM]	GI50 [19] [µM]	Compound	GI50 [3] [µM]	inhibition at 25 µM [4] [%]	inhibition at 25 µM [5] [%]	inhibition at 25 µM [6] [%]	inhibition at 25 µM [8] [%]	inhibition at 25 µM [9] [%]	inhibition at 25 µM [10] [%]	inhibition at 25 µM [11] [%]	inhibition at 25 µM [12] [%]	GI50 at 72 h [13] [µM]	inhibition at 25 µM [14] [%]	inhibition at 25 µM [17] [%]	GI50 [20] [µM]	further results
8.4	14	9.7	> 50	> 50	35	> 50	CC(C)(C)c1ccc(C2NC(=O)c3ccccc3N2)cc1 (stereo not given)	20	> 100	79	32	44	40	47	60	63	19	46	47	> 50	inhibition at 72 h, 25 µM [21]: 53%; GI50 [22]: 15 µM
7.4	3.6	2.2	3.3	4.3	4	2.1	O=C1NC(/C=C/c2ccco2)Nc2ccccc21 (stereo not given)	2.6	83	90	> 100	93	99	100	93	> 100	3.4	100	100	3	inhibition at 72 h, 25 µM [21]: 100%; GI50 [22]: 3 µM
4	3.4	1.6	3.2	2.6	3.1	2.3	Cc1ccc(C2NC(=O)c3ccccc3N2)cc1 (stereo not given)	1.9	90	> 100	> 100	> 100	> 100	87	95	> 100	3.1	> 100	> 100	2.9	inhibition at 72 h, 25 µM [21]: 100%; GI50 [22]: 2.3 µM
3.6	3.2	2.9	3.2	4.7	3.3	3.1	O=C1NC(c2ccc(Br)cc2)Nc2ccccc21 (stereo not given)	2.6	89	> 100	> 100	97	88	> 100	90	99	4	> 100	> 100	2.5	inhibition at 72 h, 25 µM [21]: 95%; GI50 [22]: 3.1 µM
2.2	5.6	3.8	7.2	32	16	6.2	COC(=O)c1cccc(/C=C/c2nc3ccccc3c(=O)[nH]2)c1	8.5	77	40	8	34	11	47	39	16	8.5	43	32	5.5	inhibition at 72 h, 25 µM [21]: 48%; GI50 [22]: 4.8 µM
2	3.2	2.6	1.9	4.1	2.9	2.7	O=C1NC(c2cccc(Br)c2)Nc2ccccc21 (stereo not given)	2.4	104	> 100	> 100	101	98	> 100	90	99	3.9	> 100	> 100	1.9	inhibition at 72 h, 25 µM [21]: 99%; GI50 [22]: 2.6 µM
1.2	3.3	2.1	9.4	19	7.7	4	Cc1ccc(/C=C/c2nc(O)c3ccccc3n2)cc1	3.6	> 100	> 100	93	69	51	82	85	97	3.8	57	61	13	inhibition at 72 h, 25 µM [21]: 86%; GI50 [22]: 3.7 µM
